Literature values, collected in paper PMC6683083, “Lupin Peptide T9 (GQEQSHQDEGVIVR) Modulates the Mutant PCSK9^D374Y Pathway: in vitro Characterization of its Dual Hypocholesterolemic Behavior” (Nutrients, 2019).
Read-outs that look alike come from different tables or passages of the source.

Experiments:
[1] = target: T1, HMGCoAR (Homo sapiens, UniProt P04035); parameters: method as in 4 sources, ref [16],[18] = [16]; doi:10.1016/j.jff.2017.02.009; 16. Zanoni C. Aiello G. Arnoldi A. Lammi C. Investigations on the hypocholesterolaemic activity of LILPKHSDAD and LTFPGSAED, two peptides from lupin beta-conglutin: Focus on LDLR and PCSK9 pathways J || [18]; doi:10.1111/jfbc.12524; 18. Lammi C. Zanoni C. Arnoldi A. Aiello G. YDFYPSSTKDQQS (P3), a peptide from lupin protein, absorbed by Caco-2 cells, modulates cholesterol metabolism in HepG2 cells via SREBP-1 activation J. Food B ||| ref [19],[20],[21] = [19]; doi:10.1016/j.jff.2015.02.021; 19. Lammi C. Zanoni C. Arnoldi A. IAVPGEVA, IAVPTGVA, and LPYP, three peptides from soy glycinin, modulate cholesterol metabolism in HepG2 cells through the activation of the LDLR-SREBP2 pathway J. Fu || [20]; PMID 26310992; doi:10.1021/acs.jafc.5b03497; 20. Lammi C. Zanoni C. Vistoli G. Arnoldi A. Two Peptides from Soy β-Conglycinin Induce a Hypocholesterolemic Effect in HepG2 Cells by a Statin-Like Mechanism: Comparative in Vitro and in Silico Model || [21]; PMID 26580610; doi:10.3390/ijms161126029; 21. Lammi C. Zanoni C. Arnoldi A. Three Peptides from Soy Glycinin Modulate Glucose Metabolism in Human Hepatic HepG2 Cells Int. J. Mol. Sci. 2015 16 27362 27370 10.3390/ijms161126029 26580610 PMC4661 ||| ref [6] = [6]; PMID 25690031; doi:10.3390/ijms16024150; 6. Soares R.A. Mendonça S. De Castro L. Menezes A.C. Arêas J.A. Ívini Major Peptides from Amaranth (Amaranthus cruentus) Protein Inhibit HMG-CoA Reductase Activity Int. J. Mol. Sci. 2015 16 4150 4160 ||| ref [4],[16] = [4]; PMID 24972343; doi:10.1021/jf500795b; 4. Lammi C. Zanoni C. Scigliuolo G.M. D’Amato A. Arnoldi A. Lupin Peptides Lower Low-Density Lipoprotein (LDL) Cholesterol through an Up-regulation of the LDL Receptor/Sterol Regulatory Element Bindin || [16]; doi:10.1016/j.jff.2017.02.009; 16. Zanoni C. Aiello G. Arnoldi A. Lammi C. Investigations on the hypocholesterolaemic activity of LILPKHSDAD and LTFPGSAED, two peptides from lupin beta-conglutin: Focus on LDLR and PCSK9 pathways J; details: cited from earlier work
T1 construct: purchased Sigma (Sigma-Aldrich, St. Louis, MO, USA)
T1 sequence (P04035 426-888 limits assumed): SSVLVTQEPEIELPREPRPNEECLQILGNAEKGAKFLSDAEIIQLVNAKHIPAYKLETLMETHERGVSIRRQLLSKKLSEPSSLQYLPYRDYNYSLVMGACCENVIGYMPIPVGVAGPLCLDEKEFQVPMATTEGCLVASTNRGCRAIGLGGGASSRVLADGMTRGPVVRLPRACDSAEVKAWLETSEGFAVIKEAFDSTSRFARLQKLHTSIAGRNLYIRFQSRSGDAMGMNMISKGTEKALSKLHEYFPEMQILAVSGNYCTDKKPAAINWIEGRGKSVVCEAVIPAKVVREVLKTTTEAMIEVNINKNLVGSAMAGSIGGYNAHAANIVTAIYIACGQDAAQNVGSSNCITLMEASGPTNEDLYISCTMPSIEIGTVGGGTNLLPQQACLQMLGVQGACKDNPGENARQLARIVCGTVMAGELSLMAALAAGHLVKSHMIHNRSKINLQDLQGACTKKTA

[2] = test system: LDL uptake by HepG2 cells; details: cited from earlier work
Source text: (§1) In this panorama, lupin protein hydrolysates, obtained by treating the proteins with pepsin and trypsin, show synergistic hypocholesterolemic effects through the modulation of both HMGCoAR and PCSK9 targets. […] In parallel, we have also predicted by in silico experiments that T9 had the potential capability of inhibiting the HMGCoAR activity.

[3] = test system: PCSK9-LDLR protein–protein interaction; details: ref [15]; cited from earlier work
Source text: as §1

[4] = test system: LDLR in HepG2 cells; details: ref [16]; cited from earlier work
Source text: In this panorama, lupin protein hydrolysates, obtained by treating the proteins with pepsin and trypsin, show synergistic hypocholesterolemic effects through the modulation of both HMGCoAR and PCSK9 targets. […] Furthermore, these lupin hydrolysates impair the protein–protein interaction (PPI) betwe ... || Taking into account all this information, it is possible to affirm that there is an interesting similarity between the hypocholesterolemic behaviors of T9 and P5.

[5] = test system: HMGCoAR protein levels; details: reference not given; presumably ref [16]; cited from earlier work
Source text: (§2) Taking into account all this information, it is possible to affirm that there is an interesting similarity between the hypocholesterolemic behaviors of T9 and P5.

[6] = test system: HNF-1α; details: ref [16]; cited from earlier work
Source text: as §2

[7] = test system: SREBP-2 transcription factor; details: ref [16]; cited from earlier work
Source text: as §2

[8] = test system: PCSK9; details: cited from earlier work
Source text: It is important to observe that some natural PCSK9 mutations affect its affinity for the LDLR. In particular, the gain of function (GOF) mutant D374Y binds more avidly to the LDLR than the wild-type (WT) PCSK9. The consequence is an approximately tenfold increased capacity of reducing the LDLR protein level. Accordingly, subjects with this PCSK9^D374Y mutation have very high LDL-C levels and are at high risk of atherosclerosis. In light of these observations, PCSK9 is currently considered a new target for the treatment of hypercholesterolemia, and the development of novel PCSK9 inhibitor ... || In this panorama, lupin protein hydrolysates, obtained by treating the proteins with pepsin and trypsin, show synergistic hypocholesterolemic effects through the modulation of both HMGCoAR and PCSK9 targets. […] Furthermore, these lupin hydrolysates impair the protein–protein interaction (PPI) betwe ... || Taking into account all this information, it is possible to affirm that there is an interesting similarity between the hypocholesterolemic behaviors of T9 and P5.

[9] = lupin β-conglutin peptides (pepsin), in vitro, ref [16],[18], read-out: IC50, HMGCoAR activity
[10] = soybean glycinin peptides, ref [19],[20],[21], read-out: IC50, HMGCoAR activity

Molecule: LILPKHSDAD [P5, absorbable peptide deriving from hydrolysis of lupin β-conglutin with pepsin]
- IC50 [1, 9]: 147 µM
- ability of HepG2 cells to clear / absorb extracellular LDL (in words) ([2]; HepG2 cells, ref [15]): increased ability of HepG2 cells to clear extracellular LDL
- capacity of HepG2 cells to clear LDL (in words) ([2]; ref [16]): enhanced capacity of HepG2 cells to clear LDL from the extracellular space
- effect on PPI between PCSK9 and LDLR (in words) [3]: able to affect the PPI between PCSK9 and the LDLR
- LDLR protein levels (in words) [4]: increase of the LDLR protein levels
- HMGCoAR protein levels (in words) [5]: does not diminish the HMGCoAR protein levels
- HNF-1α level (in words) [6]: decrease of HNF-1α
- SREBP-2 transcription factor activation (in words) [7]: augmentation of the SREBP-2 transcription factor activation
- PCSK9-WT protein level (in words) ([8]; ref [16]): decrease of PCSK9-WT protein level
- selectivity, PCSK9-WT pathway modulation (in words) ([8]; ref [16]): selective toward the PCSK9-WT pathway modulation

Molecule: LTFPGSAED [P7, absorbable peptide deriving from hydrolysis of lupin β-conglutin with pepsin]
- IC50 [1, 9]: 68.4 µM

Molecule: COc1ccc2cc3[n+](cc2c1OC)CCc1cc2c(cc1-3)OCO2 [berberine]
- PCSK9 pathway (in words) ([8]; ref [14]): modulate the PCSK9 pathway

Molecule: VGVL
- IC50 ([1]; amaranth peptide, ref [6], read-out: concentration inhibiting HMGCoAR by 50%): 51.9 µM
- HMGCoAR inhibition (in words) ([1]; amaranth protein hydrolysis peptides, ref [6]): direct inhibition of the reductase activity

Molecule: YVVNPDNNEN [soybean peptide from β-conglycinin]
- IC50 ([1]; soybean β-conglycinin peptides, ref [19],[20],[21], read-out: IC50, HMGCoAR activity): 200 µM

Molecule: YDFYPSSTKDQQS [P3, absorbable peptide deriving from hydrolysis of lupin β-conglutin with pepsin]
- IC50 [1, 9]: 70 µM

Molecule: LPYP [soybean peptide from glycinin hydrolysis]
- IC50 [1, 10]: 300 µM

Molecule: IAVPGEVA [soybean peptide from glycinin hydrolysis]
- IC50 [1, 10]: 222 µM

Molecule: IAVPTGVA [soybean peptide from glycinin hydrolysis]
- IC50 [1, 10]: 247 µM
